Measured values reported in patent publication US20150352108A1, “AMINO-PYRIMIDINE COMPOUNDS AS INHIBITORS OF TBK1 AND/OR IKK EPSILON” (Alzheimer's Institute of America, priority 2009, published 2015).
Read-outs that look alike come from different tables or passages of the source.

Legend:
[1] = tested on: IKKε-mediated phosphorylation of IRF3; assay: In-situ phosphorylation of IRF3 (pIRF3 Ser396 ELISA) in HEK293T cells cotransfected with IRF3 and IKKε; assay type: cell-based; settings: Homo sapiens, HEK-293T
Outline: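 Cells for the IRF7 Western blots carried IRF7 and TBK1 plasmids, were seeded at 150,000/well, exposed to compound overnight and probed for pSer477/Ser479 IRF7. The ELISA readout used IRF3 + IKKε-cotransfected HEK293T at 20,000/well with 20 h treatment, quantifying pSer396 IRF3 relative to DMSO, plus a parallel CellTiter-Glo viability check.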

[2] = target: T1, TBK1 (Homo sapiens, UniProt Q9UHD2); assay: In-vitro TBK1 kinase assay ([γ33]ATP filter-plate); assay type: biochemical
T1 construct: His-tag; made in house; host or cells: Sf9 insect cells
T1 sequence (Q9UHD2 1-729): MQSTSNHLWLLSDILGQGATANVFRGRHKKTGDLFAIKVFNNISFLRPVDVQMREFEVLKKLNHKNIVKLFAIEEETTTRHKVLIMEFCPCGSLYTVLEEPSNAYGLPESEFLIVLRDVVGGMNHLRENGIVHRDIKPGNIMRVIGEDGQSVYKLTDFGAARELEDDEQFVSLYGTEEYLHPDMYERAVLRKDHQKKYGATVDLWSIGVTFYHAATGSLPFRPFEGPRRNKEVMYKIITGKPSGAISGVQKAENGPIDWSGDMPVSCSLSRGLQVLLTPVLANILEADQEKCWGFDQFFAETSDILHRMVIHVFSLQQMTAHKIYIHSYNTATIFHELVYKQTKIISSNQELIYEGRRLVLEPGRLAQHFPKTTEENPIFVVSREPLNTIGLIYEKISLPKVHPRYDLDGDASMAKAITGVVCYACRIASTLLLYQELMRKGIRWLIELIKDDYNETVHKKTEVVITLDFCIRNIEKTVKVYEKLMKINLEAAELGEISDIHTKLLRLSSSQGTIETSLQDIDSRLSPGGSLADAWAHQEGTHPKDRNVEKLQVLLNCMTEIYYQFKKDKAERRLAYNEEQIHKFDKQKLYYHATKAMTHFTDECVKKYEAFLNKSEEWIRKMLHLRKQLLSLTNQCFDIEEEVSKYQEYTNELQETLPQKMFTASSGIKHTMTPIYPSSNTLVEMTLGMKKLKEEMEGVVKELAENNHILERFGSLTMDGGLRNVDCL
Outline: (§1)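 His-tagged IKKε and TBK1 from Sf9 cells were assayed with myelin basic protein or casein and [γ33]ATP at 2×Km ATP (32 μM for IKKε, 60 μM for TBK1). Enzyme was 0.1 or 0.015 μg/ml for IKKε and 0.1 or 0.02 μg/ml for TBK1 (normal/sensitized). Reactions ran 30-45 min, were filter-captured, scintillation-counted, and normalized to DMSO after background subtraction.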

[3] = target: T2, IKKε (Homo sapiens, UniProt Q14164); assay: In-vitro IKKε kinase assay ([γ33]ATP filter-plate); assay type: biochemical
T2 construct: His-tag; made in house; host or cells: Sf9 insect cells
T2 sequence (Q14164 1-716): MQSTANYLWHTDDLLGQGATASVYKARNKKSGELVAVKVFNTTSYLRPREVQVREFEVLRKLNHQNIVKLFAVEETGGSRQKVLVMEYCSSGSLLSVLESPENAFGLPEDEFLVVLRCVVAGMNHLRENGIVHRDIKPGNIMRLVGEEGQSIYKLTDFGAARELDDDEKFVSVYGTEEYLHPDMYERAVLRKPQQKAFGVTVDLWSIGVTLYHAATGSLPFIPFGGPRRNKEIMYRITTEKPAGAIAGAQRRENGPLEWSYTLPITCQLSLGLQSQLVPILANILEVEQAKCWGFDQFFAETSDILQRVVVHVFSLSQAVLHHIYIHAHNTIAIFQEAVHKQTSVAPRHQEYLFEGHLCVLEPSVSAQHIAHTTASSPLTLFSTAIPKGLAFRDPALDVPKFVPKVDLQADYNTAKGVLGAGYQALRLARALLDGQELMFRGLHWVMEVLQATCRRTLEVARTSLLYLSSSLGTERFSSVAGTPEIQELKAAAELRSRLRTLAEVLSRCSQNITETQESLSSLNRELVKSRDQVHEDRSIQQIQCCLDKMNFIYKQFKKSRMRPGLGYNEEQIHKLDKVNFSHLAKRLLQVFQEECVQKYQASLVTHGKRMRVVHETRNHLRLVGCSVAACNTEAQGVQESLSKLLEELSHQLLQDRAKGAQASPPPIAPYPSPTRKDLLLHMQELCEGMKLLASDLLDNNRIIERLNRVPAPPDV
Outline: as §1

[4] = HEK293T cells, 20 hours, text bins, read-out: IC50 for inhibition of the in-situ IKKε-mediated phosphorylation of IRF3
[5] = text bins, read-out: IC50 for inhibition of the kinase activity of TBK1
[6] = text bins, read-out: IC50 for inhibition of the kinase activity of IKKε
[7] = HEK293T cells in culture, Table 3, read-out: pIRF3 ELISA IC50

SMILES | IC50 [1, 4] [nM] | IC50 [2, 5] [nM] | IC50 [3, 6] [nM] | IC50 [1, 7] [nM] | IC50 ([2]; Table 3, read-out: TBK1 IC50) [nM] | IC50 ([3]; Table 3, read-out: IKKε IC50) [nM]
CCN(CC)CCNC(=O)c1ccc(Nc2nccc(-c3ccc(OC4CCOCC4)c(C#N)c3)n2)cc1OC [compound 506, 4-({4-[3-cyano-4-(tetrahydro-2H-pyran-4-yloxy)phenyl]pyrimidin-2-yl}amino)-N-[2-(diethylamino)ethyl]-2-methoxybenzamide] | < 100 | < 10 | < 5 | – | – | –
N#Cc1cc(-c2ccnc(Nc3cccc(NCCN4CCOCC4)c3)n2)ccc1OC1CCOCC1 [compound 657] | < 100 | < 10 | < 5 | 97.6 | 1.3 | 1.3
CC(C)COc1ccc(-c2ccnc(Nc3ccc(N4CCOCC4)cc3)n2)cc1C#N [Example 264, 2-(2-Methylpropoxy)-5-(2-{[4-(morpholin-4-yl)phenyl]amino}pyrimidin-4-yl)benzonitrile] | – | < 10 | < 5 | 654 | 0.2 | 0.6
CC1CC1C(=O)Nc1ccc(-c2ccnc(Nc3ccc(N4CCOCC4)cc3)n2)cc1C#N (centres unmarked) [compound 415, N-[2-cyano-4-(2-{[4-(morpholin-4-yl)phenyl]amino}pyrimidin-4-yl)phenyl]-2-methylcyclopropane-carboxamide] | < 100 | < 10 | < 5 | – | – | –
CN1CCC(NCc2cccc(Nc3nccc(-c4ccc(OC5CCOCC5)c(C#N)c4)n3)c2)CC1 [Example 271, 5-{2-[(3-{[(1-Methylpiperidin-4-yl)amino]methyl}phenyl)amino]pyrimidin-4-yl}-2-(tetrahydro-2H-pyran-4-yloxy)benzonitrile] | < 100 | < 10 | < 5 | – | – | –
CN(C)S(=O)(=O)Cc1ccc(Nc2nccc(-c3ccc(OC4CCOCC4)c(C#N)c3)n2)cc1 [compound 401, 1-[4-({4-[3-Cyano-4-(tetrahydro-2H-pyran-4-yloxy)phenyl]pyrimidin-2-yl}amino)phenyl]-N,N-dimethylmethane-sulfonamide] | < 100 | < 10 | < 5 | – | – | –
CCN1CCN(Cc2ccc(Nc3nccc(-c4ccc(OC5CCN(C(=O)[C@H](C)O)CC5)c(C#N)c4)n3)cc2)CC1 [compound 508, 5-[2-({4-[(4-ethylpiperazin-1-yl)methyl]phenyl}amino)pyrimidin-4-yl]-2-({1-[(2S)-2-hydroxypropanoyl]piperidin-4-yl}oxy)benzonitrile] | 100 to 250 | 10 to 100 | 5 to 50 | – | – | –
N#Cc1cc(-c2ccnc(Nc3ccc(CS(=O)(=O)N4CCOCC4)cc3)n2)ccc1OC1CCOCC1 [compound 404, 5-[2-({4-[(Morpholin-4-ylsulfonyl)methyl]phenyl}amino)pyrimidin-4-yl]-2-(tetrahydro-2H-pyran-4-yloxy)benzonitrile] | < 100 | < 10 | < 5 | – | – | –
N#Cc1cc(-c2ccnc(Nc3cccc(CS(=O)(=O)NCCO)c3)n2)ccc1OC1CCOCC1 [compound 619, 1-[3-({4-[3-Cyano-4-(tetrahydro-2H-pyran-4-yloxy)phenyl]pyrimidin-2-yl}amino)phenyl]-N-(2-hydroxyethyl) methanesulfonamide] | 250 to 500 | < 10 | < 5 | 287 | 0.2 | 1.2
N#Cc1cc(-c2ccnc(Nc3cccc(NC(=O)N4CCC(O)C4)c3)n2)ccc1OC1CCOCC1 (centres unmarked) [compound 536, N-[3-({4-[3-Cyano-4-(tetrahydro-2H-pyran-4-yloxy)phenyl]pyrimidin-2-yl}amino)phenyl]-3-hydroxypyrrolidine-1-carboxamide] | < 100 | < 10 | < 5 | 61.9 | 1.3 | 0.3
N#Cc1cc(-c2ccnc(Nc3ccc(N4CCN(CCO)CC4)cc3)n2)ccc1OCC1CC1 [compound 439, 2-(Cyclopropylmethoxy)-5-[2-({4-[4-(2-hydroxyethyl)piperazin-1-yl]phenyl}amino)pyrimidin-4-yl]benzonitrile] | < 100 | < 10 | < 5 | 8 | 0.3 | 0.4

Results, then the compound that gave them:

IC50 [1, 4] [nM] | IC50 [2, 5] [nM] | IC50 [3, 6] [nM] | IC50 [1, 7] [nM] | IC50 ([2]; Table 3, read-out: TBK1 IC50) [nM] | IC50 ([3]; Table 3, read-out: IKKε IC50) [nM] | SMILES
< 100 | < 10 | < 5 | – | – | – | COc1cc(Nc2nccc(-c3ccc(OC4CCOCC4)c(C#N)c3)n2)ccc1C(=O)N1CC(CN(C)C)C1 [compound 507, 5-(2-{[4-({3-[(dimethylamino)methyl]azetidin-1-yl}carbonyl)-3-methoxyphenyl]amino}pyrimidin-4-yl)-2-(tetrahydro-2H-pyran-4-yloxy)benzonitrile]
100 to 250 | < 10 | < 5 | – | – | – | N#Cc1cc(-c2ccnc(Nc3ccc(CN4CCN(CCO)CC4)cc3)n2)ccc1OC1CCOCC1 [compound 511, 5-{2-[(4-{[4-(2-hydroxyethyl)piperazin-1-yl]methyl}phenyl)amino]pyrimidin-4-yl}-2-(tetrahydro-2H-pyran-4-yloxy)benzonitrile]
< 100 | < 10 | < 5 | – | – | – | N#Cc1cc(-c2ccnc(Nc3ccc(CNC(=O)CO)cc3)n2)ccc1OC1CCOCC1 [compound 495, N-[4-({4-[3-cyano-4-(tetrahydro-2H-pyran-4-yloxy)phenyl]pyrimidin-2-yl}amino)benzyl]-2-hydroxyacetamide]
< 100 | < 10 | < 5 | – | – | – | N#Cc1cc(-c2ccnc(Nc3ccc(CN4CC(O)C4)cc3)n2)ccc1OC1CCOCC1 [compound 497, 5-[2-({4-[(3-hydroxyazetidin-1-yl)methyl]phenyl}amino)pyrimidin-4-yl]-2-(tetrahydro-2H-pyran-4-yloxy)benzonitrile]
100 to 250 | < 10 | < 5 | 179 | 0.5 | 3.9 | CNS(=O)(=O)Cc1cccc(Nc2nccc(-c3ccc(OC4CCOCC4)c(C#N)c3)n2)c1 [compound 648, 1-[3-({4-[3-Cyano-4-(tetrahydro-2H-pyran-4-yloxy)phenyl]pyrimidin-2-yl}amino)phenyl]-N-methylmethane-sulfonamide]
< 100 | < 10 | < 5 | 50.3 | 1.9 | 0.7 | N#Cc1cc(-c2ccnc(Nc3cccc(N4CCN(CCO)CC4)c3)n2)ccc1OC1CCOCC1 [compound 620, 5-[2-({3-[4-(2-Hydroxyethyl)piperazin-1-yl]phenyl}amino)pyrimidin-4-yl]-2-(tetrahydro-2H-pyran-4-yloxy)benzonitrile]
< 100 | < 10 | < 5 | – | – | – | COc1cc(Nc2nccc(-c3ccc(OC4CCOCC4)c(C#N)c3)n2)ccc1C(=O)N1CC(N2CCOCC2)C1 [compound 475, 5-{2-[(3-Methoxy-4-{[3-(morpholin-4-yl)azetidin-1-yl]carbonyl}phenyl)amino]pyrimidin-4-yl}-2-(tetrahydro-2H-pyran-4-yloxy)benzonitrile]
